Laboratory results reported in patent US20250205195A1, “BENZYLOXY-BENZYLAMINYL AMINO ACID DERIVATIVE FOR ADJUSTING TSLP/TSLPR SIGNAL TRANSMISSION” (AMTIXBIO CO., LTD., priority 2021, published 2025).

Assays:
interleukin-6 (IL-6) = assay: TNF-α/IFN-induced interleukin-6 in HaCaT keratinocytes (ELISA); type: cell-based, human; conditions: HaCaT cells, 0, 1, 2, 4 and 8 µg/mL, TNF-α and IFN 50 ng/mL each, 24 h
Protocol: Furthermore, human keratinocyte HaCaT cells (obtained from the Korean Cell Line Bank) were seeded at an initial density of 2×10^5 cells/well in a 12-well plate and cultured at 37° C. for 16 to 24 hours. The compound 27 of the present invention was then added to the HaCaT cell culture medium at final concentrations of 0, 1, 2, 4, and 8 µg/mL and the cells were cultured at 37° C. for 1 hour. Subsequently, to induce interleukin-6, the culture medium was treated with TNF-α (Sigma-Aldrich, USA) and […] (Sigma-Aldrich, USA) to final concentrations of 50 ng/mL each, and the cells were cultured for an additional 24 hours at 37° C. Next, the culture supernatant was collected, and the amount of induced interleukin-6 from HaCaT cells was determined using an ELISA kit (LABIS KOMA, South Korea) according to the manufacturer's instructions.
Human keratinocyte HaCaT cells (obtained from the Korean Cell Line Bank) were seeded in a 12-well plate at an initial density of 2×10^5 cells/well and cultured at 37° C. for 16 to 24 hours. […] The culture supernatant was collected, and the amount of induced interleukin-6 from HaCaT cells was determined using an ELISA kit (LABIS KOMA, South Korea) according to the manufacturer's instructions.

p-STAT5 = assay: TSLP-induced p-STAT5 in bone marrow-derived dendritic cells (BMDCs), Western blot; type: cell-based, mouse
Protocol: C57BL/6J mice (JA BIO, DBL-0011, male, 6-12 weeks old) were euthanized, and femurs and tibias were separated after cervical dislocation and then were stored in PBS (HyClone, Cat No. SH30028.02). After removing tissues as much as possible from femurs and tibias, both ends of the bones were cut vertically, and bone marrow was quickly collected with a 5 mL syringe (Korea Vaccine, 5 cc syringe 22 g). After centrifugation at 1800 rpm for 3 minutes, the supernatant was discarded, 10 mL PBS was added to resuspend the cells, and the mixture was filtered through a 100 µm cell strainer. […]
The obtained BMDCs were pre-treated with compound 27, Jak1 inhibitor (Filgotinib, Selleck, Cat No. JS7605), or Jak2 inhibitor (SD-1029, Sigma, Cat No. 573098) 30 minutes or 1 hour prior to treatment. […] After quantifying the protein using the BCA protein assay kit (Thermo, Cat No. 23225), 5×SDS-PAGE loading buffer (Biosesang, Cat No. SF2002-110-00) was added, boiled for 5 minutes at 103° C., and stored at −20° C. […]
BR1706516)] for 2 hours at room temperature. After washing with TBS-T, the membrane was incubated with ECL solution (Thermo, Cat No. 32209), and protein bands were detected using the iBright imaging system (Invitrogen, Model No. FL1500). Each band intensity was measured using ImageJ software (version 1.38; National Institutes of Health), and the pSTAT5/STAT ratio was calculated. […]

interleukin-4 (IL-4) = assay: PMA/ionomycin-induced interleukin-4 in RBL-2H3 cells (ELISA); type: cell-based, rat; conditions: RBL-2H3 cells, 0, 1, 2, 4 and 8 µg/mL, 24 h
Protocol: Rat basophilic leukemia cells RBL-2H3 (obtained from the Korean Cell Line Bank) were seeded at an initial density of 2×10^5 cells/well in a 48-well plate and cultured at 37° C. for 16 to 24 hours. Subsequently, compound 27 of the present invention was added to the RBL-2H3 cell culture medium at final concentrations of 0, 1, 2, 4, and 8 µg/mL and the cells were cultured at 37° C. for 1 hour. Next, to induce interleukin-4, the culture medium was treated with PMA ([…], Sigma-Aldrich, USA) and ionomycin (Sigma-Aldrich, USA) to final concentrations of 50 ng/mL and […], respectively, and the cells were cultured for an additional 24 hours at 37° C. The culture supernatant was then collected, and the amount of induced interleukin-4 from RBL-2H3 cells was determined using an ELISA kit (LABIS KOMA, South Korea) according to the manufacturer's instructions. FIG. 2 (a) represents the results.

Compound: CCC(NC)C(=O)NCc1ccc(OCc2ccc(C(F)(F)F)cc2)cc1 (racemic) [Compound 27, (R)/(S)-2-(methylamino)-N-(4-((4-trifluoromethyl)benzyl)oxy)benzyl)butanamide]
- amount of induced interleukin-6 (interleukin-6 (IL-6)): decreased
- reduction in p-STAT5 (p-STAT5; 2 pM, compared to the TSLP-treated group): 51%
- p-STAT5 (pSTAT5/STAT ratio) (p-STAT5; BMDCs, TSLP treatment): significantly reduced
- amount of induced interleukin-4 (interleukin-4 (IL-4)): decreased proportionally
